In patent publication US11324725B2, “Compositions and methods for the inhibition of pruritus” (The United States of America, as represented by the …, priority 2017, dated 2022):
Entries after “also recorded” stand apart in the source; their conditions may differ.

Tests used:
Firefly luciferase = Firefly luciferase (Photinus pyralis, UniProt P08659); assay: Biochemical Firefly luciferase enzymatic counter-screen; conditions: for Imax, Fluc in vitro: −100% = 57.5 μM PTC124, n.d. = inhibition not detectable at all; for Direct effect on Firefly luciferase (in words): FLuc in vitro
Procedure: Direct effects of compounds on firefly luciferase enzymatic activity were tested in vitro. A Firefly luciferase enzyme assay was performed on the 1,408 follow-up compounds. To achieve half-maximal reaction velocity, the D-Luciferin substrate concentration equaled Km and the assay was otherwise performed according to Jang et al., ACS Chem. Bio., 7: 1205-1213 (2012) (which is incorporated herein by reference, in its entirety), as follows: 3 μl of substrate-buffer solution (0.01 mM D-Luciferin, 0.01 mM ATP, 50 mM Tris Acetate, 10 mM Mg Acetate, 0.01% Tween-20 and 0.038% BSA final concentrations) were dispensed into white, solid bottom medium bind 1536-well plates (Greiner Bio-One) with a BioRAPTR Flying Reagent Dispenser™ (Beckman Coulter). Compounds were transferred as described for qHTS along with DMSO (as a negative control) and titrations of PTC124 (as a positive control), ranging from the top concentration of 57.5 μM to 4.0 μM in columns 1-4 of each plate as vehicle and positive controls, respectively. Luciferase enzyme-buffer solution (1 μl) (10 nM P. pyralis luciferase in 50 mM Tris Acetate final concentration) was dispensed and after a 5-minute incubation at room temperature, luminescence was read on a ViewLux™ plate reader.

[1] = system: soluble guanylate cyclase / pGloSensor-40F reporter in HEK-cGMP-sensor cells; assay: Counter-screen, SNP-stimulated HEK-cGMP-sensor cells; type: cell-based, human
Source text: In order to identify small molecular compounds that inhibit the Npr1 receptor a high-throughput assay to probe inhibition of the receptor guanylate cyclase Npr1 was developed. The assay was designed taking advantage of Promega's GloSensor™ technology (Promega, Madison, Wis.). This technology involves the expression of a cyclic guanosine monophosphate (cGMP) biosensor, comprised of a firefly luciferase variant that was coupled to the cGMP binding domain of human phosphodiesterase 5A, and loading of cells with a cell-permeable luciferase substrate to monitor cGMP production by Npr1 in real time in live cells. Briefly, human embryonic kidney 293 cells stably expressing the human Npr1 and the pGloSensor™-40F cGMP vector (“pGloSensor™-40F”) were generated. Stimulating these cells with the Npr1 agonists human NppA or NppB, luciferase-induced light production could be detected in a dose-dependent manner. HEK293 cells stably expressing human Npr2 and pGS-40F and cells only expressing pGS-40F were also generated to conduct secondary counter screens. In these cells, NppC or sodium nitroprusside were used to stimulate Npr2 or soluble guanylate cyclase which is endogenously expressed in HEK293 cells, respectively. The Npr2-NppC counter screen was employed to search for agents that minimally effected this agonist-receptor interaction. The Npr2-NppC system was used because the side effects of most drugs occur on related receptors. Npr1 and Npr2 are the most related receptors in sequence and function and there are no additional active receptor subtypes in this family of receptors. The procedure is described in detail below.
First, hNpr1 assays were repeated, at 11 concentrations on all selected compounds, to validate all positive compounds from the primary screen. This confirmed the selection criteria used for the selection of the active compounds. […]

[2] = system: HEK-hNpr1-cGMP-sensor cells; assay: Cytotoxicity counter-screen (CellTiter-Glo); type: cell-based, human; conditions: for Imax, cytotoxicity: −100% = 115 μM Digitonin, n.d. = inhibition not detectable at all
Procedure: (§1) Compound cytotoxicity was tested with Promega's CellTiter-Glo™ assay which measures cellular adenosine triphosphate content, a surrogate of metabolic activity, with a firefly luciferase reagent. A cytotoxicity counter-screen using HEK-hNpr1-cGMP-sensor cells was performed on the 1,408 follow-up compounds. Cells (1.5×10^3) cells were plated in 4 μL C02-independent media in white, solid bottom TC-treated 1536-well plates (Greiner Bio-One). Cells were incubated at 37° C., 5% CO2 and 95% humidity for 16 hours. Compound transfer was performed as described for qHTS along with DMSO and a titration of Digitonin from a top concentration of 115 μM to 3.5 nM in columns 1-4 of each assay plate as vehicle and cytotoxicity controls, respectively. Cells were incubated with compound for 2 hours at 37° C. CellTiter-Glo™ reagent (Promega) (3 μl) was added to each well with a BioRAPTR Flying Reagent Dispenser™ (Beckman Coulter) and plates were incubated for 10 min at room temperature, protected from light. Luminescence was measured on a ViewLux™ plate reader. Data were normalized to the average signal of DMSO-treated wells as 0% and the average signal of wells treated with 115 μM Digitonin as −100% activity and analyzed as above.

[3] = Cytotoxicity counter-screen (CellTiter-Glo); type: cell-based, human; conditions: human, HEK-hNpr1-cGMP-sensor cells; 2 hours with compound, CellTiter-Glo
Procedure: as §1

C57BL/6N mice = assay: Contact hypersensitivity (DNFB) model of chronic scratching; type: in vivo, mouse; conditions: 163 μg i.p.
Procedure: The contact hypersensitivity model was performed as follows: the back of 6-8-week old female C57BL/6N mice (Envigo) was shaved with electric clippers. After 2 days, 25 μl of 0.5% (v/v) dinitro-fluoro-benzene (DNFB) diluted in a 4:1 mixture of acetone and olive oil was applied to the shaved back skin. Hapten challenge was performed 5 days after sensitization by applying 40 μl of 0.2% (v/v) DNFB in the same vehicle on the left ear and 40 μl of vehicle alone on the right ear. […] Mice were then injected intraperitoneally with JS-11 (163 μg) or DMSO (20%) as a vehicle control. After 10 minutes, scratching was again observed for 30 minutes. To assess skin inflammation, ear thickness was measured with a thickness gauge (Mitutoyo, Aurora, Ill.) before and 30 minutes after JS-11/DMSO injections and normalized to ear thickness before hapten challenge.

Sequence of Firefly luciferase (P08659 whole entry): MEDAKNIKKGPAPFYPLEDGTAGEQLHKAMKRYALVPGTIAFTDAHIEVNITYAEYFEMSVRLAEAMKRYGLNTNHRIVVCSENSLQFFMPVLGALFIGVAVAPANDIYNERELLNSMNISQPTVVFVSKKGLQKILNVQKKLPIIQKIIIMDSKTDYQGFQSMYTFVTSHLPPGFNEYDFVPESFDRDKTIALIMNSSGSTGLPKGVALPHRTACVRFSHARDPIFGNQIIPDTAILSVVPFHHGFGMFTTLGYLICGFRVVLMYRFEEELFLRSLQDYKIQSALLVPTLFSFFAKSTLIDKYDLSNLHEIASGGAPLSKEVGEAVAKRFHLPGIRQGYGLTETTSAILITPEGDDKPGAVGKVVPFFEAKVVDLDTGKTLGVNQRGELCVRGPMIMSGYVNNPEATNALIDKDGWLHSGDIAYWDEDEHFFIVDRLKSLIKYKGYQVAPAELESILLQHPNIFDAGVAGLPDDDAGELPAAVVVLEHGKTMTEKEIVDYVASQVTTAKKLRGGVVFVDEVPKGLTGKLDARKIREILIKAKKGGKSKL

SMILES | Imax, Fluc in vitro (Firefly luciferase) [%] | Direct effect on Firefly luciferase (in words) (Firefly luciferase) | Effect on SNP-induced GloSensor signals (in words) [1] | Cytotoxicity (in words) [2] | Imax, cytotoxicity [2] [%] | IC50 at 2 h [3] [µM] | also measured
Cl.O=C1Nc2ccccc2CN(CC2CCCCC2)C12CCNCC2 [JS-1, 4-(cyclohexylmethyl)-4,5-dihydrospiro[benzo[e][1,4]diazepine-3,4′-piperidin]-2(1H)-one hydrochloride] | −3 ± 3 |  |  |  |  |  | 
CCC(CC)c1cc([C@H]2CN3CC[C@H]2C[C@@H]3CNS(=O)(=O)c2cccs2)nc(-c2ccncc2)n1 [JS-3, N-(((2R,4S,5R)-5-(6-(pentan-3-yl)-2-(pyridin-4-yl)pyrimidin-4-yl)quinuclidin-2-yl)methyl)thiophene-2-sulfonamide] | −1 ± 6 |  |  |  |  |  | IC50 (Firefly luciferase): 25 ± 4 µM
Cc1noc(C)c1-c1cc(-c2ccccc2Oc2ccccc2)cn2cncc12 [JS-5, 3,5-dimethyl-4-(6-(2-phenoxyphenyl)imidazo[1,5-a]pyridin-8-yl)isoxazole] |  | do not directly inhibit luciferase; also recorded: does not inhibit Firefly luciferase | do not attenuate SNP dependent cGMP sensor activation; also recorded: does not block SNP-induced GloSensor™ signals | are not cytotoxic; also recorded: does not produce cytotoxicity |  |  | 
COc1ccccc1-c1n[nH]c2ncc(C(=O)NCc3cccnc3)nc12 [JS-6, 3-(2-methoxyphenyl)-N-(pyridin-3-ylmethyl)-1H-pyrazolo[3,4-b]pyrazine-5-carboxamide] |  |  |  |  | −36 ± 87 | 45 ± 43 | 
Cc1nn2c(c1-c1ccccc1OCc1ccccc1)N(C(=O)Cc1ccc3c(c1)OCO3)CCC2 [JS-8, 2-(benzo[d][1,3]dioxol-5-yl)-1-(3-(2-(benzyloxy)phenyl)-2-methyl-6,7-dihydropyrazolo[1,5-a]pyrimidin-4(5H)-yl)ethan-1-one] |  | do not directly inhibit luciferase; also recorded: does not inhibit Firefly luciferase | do not attenuate SNP dependent cGMP sensor activation; also recorded: does not block SNP-induced GloSensor™ signals | are not cytotoxic; also recorded: does not produce cytotoxicity | −22 ± 29 | 49 ± 14 | 
Cc1cc(CNC(=O)c2ccc3c(c2)n(CC2CC2)c(=O)n3C2CCCCC2)on1 [JS-11, 1-cyclohexyl-3-(cyclopropylmethyl)-N-((3-methylisoxazol-5-yl)methyl)-2-oxo-2,3-dihydro-1H-benzo[d]imidazole-5-carboxamide] |  | do not directly inhibit luciferase; also recorded: does not inhibit Firefly luciferase | do not attenuate SNP dependent cGMP sensor activation; also recorded: does not block SNP-induced GloSensor™ signals | are not cytotoxic; also recorded: does not produce cytotoxicity |  |  | Skin inflammation (% ear thickness) after hapten challenge (C57BL/6N mice; measured before and 30 minutes after injection): had no effect on skin inflammation; also recorded: no differences in % ear thickness were detectable; Hapten-induced scratching responses (C57BL/6N mice; scratching observed 30 minutes, from 10 minutes after injection): attenuated hapten-induced scratching responses by about a half; also recorded: significantly reduced
